According to publication PMC10343501 (Molecules, 2023):

Columns and labels:
Format in all cases: cell-based
Conditions in all cases: read-out: % inhibition at 100 nM
[1] = molecular target: T1, hERG potassium channel (Homo sapiens, UniProt Q12809); assay: whole-cell patch clamp, HEK-293 cells, […] inhibition at […] (RT), […] (PT)
T1 construct: gene KCNH2

[2] = molecular target: T2, hERG potassium channel (Homo sapiens, UniProt Q12809, S624A); assay: whole-cell patch clamp, transfected HEK-293 cells, […], RT
T2 construct: gene KCNH2

[3] = molecular target: T3, hERG potassium channel (Homo sapiens, UniProt Q12809, Y652A); assay: as above
T3 construct: gene KCNH2
T3 sequence (Q12809 whole entry Y652A): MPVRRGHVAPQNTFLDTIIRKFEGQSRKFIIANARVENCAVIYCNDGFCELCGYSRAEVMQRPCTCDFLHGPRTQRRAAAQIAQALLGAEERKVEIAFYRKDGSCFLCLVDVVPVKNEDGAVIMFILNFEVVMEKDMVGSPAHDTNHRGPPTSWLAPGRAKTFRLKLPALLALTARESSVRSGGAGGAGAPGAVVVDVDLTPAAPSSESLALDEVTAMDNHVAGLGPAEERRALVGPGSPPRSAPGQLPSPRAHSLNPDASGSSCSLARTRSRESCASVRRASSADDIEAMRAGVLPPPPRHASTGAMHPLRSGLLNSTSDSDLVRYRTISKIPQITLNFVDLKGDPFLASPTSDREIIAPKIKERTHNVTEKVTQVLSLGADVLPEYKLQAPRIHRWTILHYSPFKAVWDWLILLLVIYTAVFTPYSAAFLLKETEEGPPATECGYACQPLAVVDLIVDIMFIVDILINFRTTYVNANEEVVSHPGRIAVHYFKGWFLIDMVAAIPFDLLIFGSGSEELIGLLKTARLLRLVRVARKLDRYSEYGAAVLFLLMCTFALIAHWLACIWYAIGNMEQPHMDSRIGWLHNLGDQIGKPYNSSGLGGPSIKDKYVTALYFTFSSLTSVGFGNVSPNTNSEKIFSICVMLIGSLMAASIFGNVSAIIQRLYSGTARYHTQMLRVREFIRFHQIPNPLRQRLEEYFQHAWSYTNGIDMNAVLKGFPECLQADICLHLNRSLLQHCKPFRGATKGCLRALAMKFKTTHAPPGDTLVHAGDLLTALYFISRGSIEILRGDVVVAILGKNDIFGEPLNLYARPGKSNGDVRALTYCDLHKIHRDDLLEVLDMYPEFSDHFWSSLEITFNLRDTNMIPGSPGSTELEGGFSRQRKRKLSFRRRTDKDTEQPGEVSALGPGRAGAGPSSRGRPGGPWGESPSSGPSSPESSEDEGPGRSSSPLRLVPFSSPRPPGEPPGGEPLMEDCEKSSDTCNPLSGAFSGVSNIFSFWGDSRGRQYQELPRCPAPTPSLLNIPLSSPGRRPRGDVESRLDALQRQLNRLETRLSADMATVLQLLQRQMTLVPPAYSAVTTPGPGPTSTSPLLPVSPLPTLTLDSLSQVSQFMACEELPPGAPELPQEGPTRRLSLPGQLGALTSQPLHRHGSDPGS

T1 sequence (Q12809 whole entry): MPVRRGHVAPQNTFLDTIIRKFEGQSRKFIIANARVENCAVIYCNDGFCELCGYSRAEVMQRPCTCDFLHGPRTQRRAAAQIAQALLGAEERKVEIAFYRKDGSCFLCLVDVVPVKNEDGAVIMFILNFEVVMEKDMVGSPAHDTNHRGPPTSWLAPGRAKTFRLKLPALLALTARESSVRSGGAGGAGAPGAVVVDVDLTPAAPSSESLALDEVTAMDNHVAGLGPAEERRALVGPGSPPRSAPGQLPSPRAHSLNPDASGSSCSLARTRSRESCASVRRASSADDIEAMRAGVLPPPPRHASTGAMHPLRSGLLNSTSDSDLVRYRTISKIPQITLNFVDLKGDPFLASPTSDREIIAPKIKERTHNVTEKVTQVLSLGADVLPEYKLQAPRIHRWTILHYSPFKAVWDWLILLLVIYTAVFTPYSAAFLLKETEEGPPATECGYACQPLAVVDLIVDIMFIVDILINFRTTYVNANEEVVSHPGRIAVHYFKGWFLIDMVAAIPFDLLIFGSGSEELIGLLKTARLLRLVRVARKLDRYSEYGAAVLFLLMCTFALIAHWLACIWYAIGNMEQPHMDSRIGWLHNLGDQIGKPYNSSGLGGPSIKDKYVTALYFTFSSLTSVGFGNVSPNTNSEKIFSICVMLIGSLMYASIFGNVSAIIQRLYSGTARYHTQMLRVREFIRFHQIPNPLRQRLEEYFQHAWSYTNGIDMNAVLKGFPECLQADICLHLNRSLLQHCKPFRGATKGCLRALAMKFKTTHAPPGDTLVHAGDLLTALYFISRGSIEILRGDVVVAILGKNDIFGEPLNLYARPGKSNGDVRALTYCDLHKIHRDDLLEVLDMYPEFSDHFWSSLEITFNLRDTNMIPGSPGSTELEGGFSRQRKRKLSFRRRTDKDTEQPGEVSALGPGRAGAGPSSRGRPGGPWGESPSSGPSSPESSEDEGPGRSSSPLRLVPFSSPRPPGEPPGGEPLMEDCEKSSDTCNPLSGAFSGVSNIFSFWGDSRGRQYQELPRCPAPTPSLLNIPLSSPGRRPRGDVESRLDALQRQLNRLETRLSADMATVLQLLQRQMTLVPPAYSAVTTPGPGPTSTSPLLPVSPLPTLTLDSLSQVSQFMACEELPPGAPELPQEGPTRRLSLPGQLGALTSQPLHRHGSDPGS
T2 sequence (Q12809 whole entry S624A): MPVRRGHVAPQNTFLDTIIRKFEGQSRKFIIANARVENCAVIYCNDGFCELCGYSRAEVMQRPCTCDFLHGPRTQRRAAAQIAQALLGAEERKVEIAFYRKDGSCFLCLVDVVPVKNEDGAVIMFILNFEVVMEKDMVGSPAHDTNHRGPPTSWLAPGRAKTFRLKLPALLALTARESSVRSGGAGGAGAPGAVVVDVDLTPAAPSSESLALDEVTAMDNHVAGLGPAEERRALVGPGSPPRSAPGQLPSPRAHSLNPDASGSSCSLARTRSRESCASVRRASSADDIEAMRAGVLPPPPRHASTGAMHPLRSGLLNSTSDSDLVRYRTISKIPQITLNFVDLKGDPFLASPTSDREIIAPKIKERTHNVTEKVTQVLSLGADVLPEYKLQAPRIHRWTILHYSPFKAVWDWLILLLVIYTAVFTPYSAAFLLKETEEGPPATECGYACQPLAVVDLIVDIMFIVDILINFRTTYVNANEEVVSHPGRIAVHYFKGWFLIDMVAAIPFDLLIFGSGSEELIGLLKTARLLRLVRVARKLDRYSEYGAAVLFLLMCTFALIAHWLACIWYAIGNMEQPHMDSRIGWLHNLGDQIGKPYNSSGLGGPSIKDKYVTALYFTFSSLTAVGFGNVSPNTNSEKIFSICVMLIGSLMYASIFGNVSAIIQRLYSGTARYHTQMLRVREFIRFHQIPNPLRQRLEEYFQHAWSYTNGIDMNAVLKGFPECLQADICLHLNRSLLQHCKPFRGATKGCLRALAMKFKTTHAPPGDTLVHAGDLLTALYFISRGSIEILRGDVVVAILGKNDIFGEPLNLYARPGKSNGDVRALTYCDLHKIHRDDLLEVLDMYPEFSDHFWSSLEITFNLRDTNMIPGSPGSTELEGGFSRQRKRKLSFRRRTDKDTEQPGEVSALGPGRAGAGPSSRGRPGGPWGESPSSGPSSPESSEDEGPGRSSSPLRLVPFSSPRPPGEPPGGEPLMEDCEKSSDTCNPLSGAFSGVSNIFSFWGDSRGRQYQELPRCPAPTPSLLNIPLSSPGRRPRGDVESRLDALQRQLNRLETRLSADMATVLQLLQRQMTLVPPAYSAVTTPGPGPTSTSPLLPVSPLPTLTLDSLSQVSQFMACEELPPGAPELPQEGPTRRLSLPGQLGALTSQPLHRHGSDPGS

SMILES: COc1cc(N)c(Cl)cc1C(=O)NC1CCN(CCCOc2ccc(F)cc2)CC1OC (stereo not drawn) [cisapride]
- inhibition at 0.1 µM [1]: 75.9%
- inhibition at 0.1 µM [2]: 44%
- inhibition at 0.1 µM [3]: 33.9%
